The target of one data set is T1, PDE3A (Homo sapiens, UniProt Q14432).
T1 construct: purchased DiscoverX (Eurofins)
As to the kind of experiment: Safetyscan Enzymatic. Type of data set: biochemical. The settings on record: read-out: RC50 (IC50) PDE3A Inhibitor.

For another data set, the target named is T2, MAOA (Homo sapiens, UniProt P21397).
T2 construct: purchased DiscoverX (Eurofins)
Description: Safetyscan Enzymatic. The data set is classed as biochemical. The settings on record: read-out: RC50 (IC50) MAOA Inhibitor.

For the next data set, the target named is T3, SOS2 (Homo sapiens, UniProt Q07890).
T3 construct: amino acids 558-1047, expressed in E. coli with a N-terminal HIS-tag MW=59.3 kDa; His (N); purchased Accelagen Inc; host or cells: E. coli
As to the kind of experiment: SOS2 KRAS WT GDP exchange assay. Type of data set: biochemical. How it is done:
The plates were incubated overnight at 4 °C on a shaker.
Each plate was washed 3x times […]
for 2 hours (protected from light). The secondary antibody solution as removed and each plate […]
was washed with PBST 3x times. […]
length at 3mm and both 800nm and 700nm filters. The GAPDH normalized scan values for each […]
were then calculated with the Graph pad Prism software.
EGFR selectivity was profiled using Reaction Biology’s radiometric HotSpot kinase assay with human EGFR. Compounds were sent as a powder then suspended as a 10 mM DMSO stock […]
starting at 20 μM. Reactions were carried out at 10 μM ATP.
SOS2 KRAS WT GDP Exchange Assay
The final conditions for the Functional SOS2 Assay are as follows: 50 mM HEPES 7.5, 2nM SOS2, 50nM GTP-CY5, 30nM KRAS, 0.5 nM Tb-SA, 5 mM MgCl2, 1 mM TCEP, 0.2 mg/mL BSA, ~1.0% DMSO. Recombinant human SOS2 polypeptide (Accelagen Inc., corresponding to amino acids 558-1047, expressed in E. coli with a N-terminal HIS-tag MW=59.3 kDa) and Cy5-GTP (Jena Bioscience Inc) were added to an exemplary compound (in a DMSO stock solution) at room temperature for 15 minutes. […] 100 percent of control (POC) is determined by using a DMSO control and 0 POC is determined using a concentration of control […]

The subject of data set [1] is MIA PaCa-2 tumor mouse xenograft. As to the kind of experiment: Antitumor efficacy study in MIA PaCa-2 mouse xenograft. The settings on record: for tumor growth inhibition (TGI): single agent, 25 days.
For data set [2] the following is noted: mouse, IV 3 mg/kg.
Data set [3] relates to pERK in MIA PaCa-2 tumors. Description: Tumor pharmacodynamic (pERK) study in MIA PaCa-2 mouse xenograft.
The nature of a further data set: CNS mouse PK study. Type of data set: in vivo, female CD-1 mice. The conditions noted are these: female, CD-1, mouse, CSF / free plasma, read-out: CSF:Cp,u (Kp,uu). The text has this:
Table 10 CNS Mouse PK Profile of MRTX0902 (32) ^a | column: mean free plasma concn (Cp,u, nM); mean brain concn (ng/g); mean CSF concn (nM); CSF:Cp,u (Kp,uu)

A short description of data set [4]: pKa determination (Sirius T3). The data set is classed as physicochemical. The conditions noted are these: for pKa: water/methanol co-solvent mixture. How it is done:
Sirius T3Dt (Sirius Analytical Instruments Ltd) fitted with combination Ag/AgCl pH electrode was used for the determination of dissociation constants. The pKa and psKa values were calculated by Sirius T3Dt software (Sirius Analytical Instruments Ltd, Version 1.0.12.120). There are two methods available on the Sirius T3 for pKa measurement: potentiometric titration and spectroscopic (UV) titration.
UV metric method: Pipetted 5 µL of sample stock solution (10 mM in DMSO) and 25 µL fast UV buffer into a sample vial, and 1.5 mL of 80%v/v MeOH was added into the sample vial automatically. Pre - acidified the sample solution with 0.5 M HCl by the instrument automatically, and then titrated three times from low to high pH. Refined the data to get aqu eous pKa value. pH metric method: About 1 mg of sample was weighed into a sample vial. 1.50 mL of 80%v/v MeOH was added into the vial automatically. The sample was solution pre -acidified with 0.5 M HCl by the instrument automatically, and then titrated three times from low to high pH. Refined the data to get aqueous pKa value.
Sirius T3 software always fits Yasuda -Shedlovsky data linearly, according to the equation.
• Yi is calculated as psKa + log [H 2O]
• psKa represents apparent pKa values of compounds measured in water/co -solvent mixtures • [H2O] represents the concentration of H2O in mixtures solution […]
• ε i represents dielectric constant of water/co-solvent mixture
Table S3. pKa of MRTX0902
Cmpd pKa pKa (pH Final pKa

Read-outs that look alike come from different tables or passages of the source.

T3 sequence (Q07890 558-1047): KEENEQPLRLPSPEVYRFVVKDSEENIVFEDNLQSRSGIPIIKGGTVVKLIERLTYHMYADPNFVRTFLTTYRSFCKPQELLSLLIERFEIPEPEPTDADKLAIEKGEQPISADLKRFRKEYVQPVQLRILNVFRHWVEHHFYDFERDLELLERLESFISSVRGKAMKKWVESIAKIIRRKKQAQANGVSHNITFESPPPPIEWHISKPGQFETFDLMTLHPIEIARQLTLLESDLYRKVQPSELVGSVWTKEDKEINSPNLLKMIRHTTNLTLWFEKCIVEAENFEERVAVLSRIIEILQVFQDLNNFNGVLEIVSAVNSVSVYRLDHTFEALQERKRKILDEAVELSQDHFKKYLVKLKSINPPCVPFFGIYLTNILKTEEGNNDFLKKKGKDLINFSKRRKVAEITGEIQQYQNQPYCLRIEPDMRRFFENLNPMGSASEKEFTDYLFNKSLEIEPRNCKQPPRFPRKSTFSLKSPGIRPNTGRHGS
T1 sequence (Q14432 whole entry): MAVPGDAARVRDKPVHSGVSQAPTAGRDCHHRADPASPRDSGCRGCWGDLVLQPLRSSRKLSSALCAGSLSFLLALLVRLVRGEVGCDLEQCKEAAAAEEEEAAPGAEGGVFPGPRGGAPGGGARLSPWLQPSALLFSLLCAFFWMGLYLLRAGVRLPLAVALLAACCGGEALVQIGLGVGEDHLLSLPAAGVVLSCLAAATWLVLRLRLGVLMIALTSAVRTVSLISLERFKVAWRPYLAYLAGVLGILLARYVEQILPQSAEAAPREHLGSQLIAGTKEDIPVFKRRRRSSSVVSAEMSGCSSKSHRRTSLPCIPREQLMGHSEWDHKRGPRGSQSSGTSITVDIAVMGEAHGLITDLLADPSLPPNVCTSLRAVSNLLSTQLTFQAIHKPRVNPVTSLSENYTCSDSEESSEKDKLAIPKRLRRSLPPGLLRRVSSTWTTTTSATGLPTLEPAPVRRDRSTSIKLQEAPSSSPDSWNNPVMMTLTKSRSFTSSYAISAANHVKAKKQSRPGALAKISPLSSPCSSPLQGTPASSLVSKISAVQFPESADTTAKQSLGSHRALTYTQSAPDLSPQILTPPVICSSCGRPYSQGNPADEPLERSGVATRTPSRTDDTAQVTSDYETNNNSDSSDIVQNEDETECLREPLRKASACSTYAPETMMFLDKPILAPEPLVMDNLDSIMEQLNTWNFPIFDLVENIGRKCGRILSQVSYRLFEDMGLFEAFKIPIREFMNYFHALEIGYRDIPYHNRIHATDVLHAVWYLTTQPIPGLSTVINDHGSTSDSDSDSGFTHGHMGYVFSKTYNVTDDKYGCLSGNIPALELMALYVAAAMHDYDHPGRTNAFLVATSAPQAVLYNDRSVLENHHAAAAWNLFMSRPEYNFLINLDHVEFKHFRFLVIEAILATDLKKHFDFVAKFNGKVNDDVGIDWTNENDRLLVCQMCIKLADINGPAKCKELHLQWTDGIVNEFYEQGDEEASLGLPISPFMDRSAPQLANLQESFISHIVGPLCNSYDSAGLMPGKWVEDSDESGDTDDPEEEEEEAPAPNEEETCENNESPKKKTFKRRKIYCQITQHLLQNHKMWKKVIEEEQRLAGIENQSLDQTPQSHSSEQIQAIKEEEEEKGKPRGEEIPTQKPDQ
T2 sequence (P21397 whole entry): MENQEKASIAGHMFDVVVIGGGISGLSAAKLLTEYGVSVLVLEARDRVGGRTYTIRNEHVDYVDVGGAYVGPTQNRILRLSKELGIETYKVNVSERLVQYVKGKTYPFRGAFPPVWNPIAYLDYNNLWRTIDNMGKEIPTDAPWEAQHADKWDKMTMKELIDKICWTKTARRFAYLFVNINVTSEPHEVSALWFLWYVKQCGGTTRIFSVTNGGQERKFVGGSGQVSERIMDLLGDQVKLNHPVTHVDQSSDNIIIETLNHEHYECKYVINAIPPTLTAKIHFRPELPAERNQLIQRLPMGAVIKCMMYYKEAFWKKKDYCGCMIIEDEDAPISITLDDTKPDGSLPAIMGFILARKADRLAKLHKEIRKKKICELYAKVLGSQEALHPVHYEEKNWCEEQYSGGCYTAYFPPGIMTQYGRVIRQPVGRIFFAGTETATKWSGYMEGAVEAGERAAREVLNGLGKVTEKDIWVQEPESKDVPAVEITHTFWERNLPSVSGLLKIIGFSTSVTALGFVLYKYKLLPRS

As to `Cc1c(C#N)cccc1[C@@H](C)Nc1nnc(C)c2cnc(N3CCOCC3)cc12` [Compound 32, (R)-2-Methyl-3-(1-((4-methyl-7-morpholinopyrido[3,4-d]pyridazin-1-yl)amino)ethyl)benzonitrile], the IC50 (as a rule, the concentration that inhibits the measured activity by half) on PDE3A was more than 10 µM; at MAOA it was 8.88 µM; against SOS2, more than 10 µM. Also, the tumor regression in data set [1] (MRTX0902 25 mg/k bid in combination with MRTX849 10 mg/kg qd) is listed as −54%; in data set [1] (MRTX0902 50 mg/kg bid in combination with MRTX849 10 mg/kg qd) it was −92%. For the same compound, the tumor-free animals result in data set [1] (MRTX0902 50 mg/kg bid with MRTX849 10 mg/kg qd, n = 5 animals/group) is listed as “two tumor-free animals”. The results for the “tumor growth inhibition (TGI)” value in data set [1] (25 mg/kg bid PO) and in data set [1] (50 mg/kg bid PO) were 41% and 53%, respectively. In addition, the Cl in data set [2] is reported as 4.4 mL/min/kg. Further, the “IV t1/2” value in data set [2] came out at 1.3 h. Moreover, the “Vd,ss” value in data set [2] is given as 0.28 L/kg. Moreover, the “pERK modulation in tumors, combination” value in data set [3] (MRTX0902 in combination with MRTX849, 6 days of dosing, tumors collected 4 h after last dose) was “increased pERK modulation”. For the same compound, in data set [3] (calculated from AUC0–24 of 50 mg/kg bid in combination with MRTX849, MIA PaCa-2 PD study, 6 days of dosing), the “efficacious free Cavg” value was 25 nM. Besides, in “CNS mouse PK study” (1 h after PO 100 mg/kg single dose), the Kp uu at 1 h was determined as 1.56. Also, in “CNS mouse PK study” (8 h after PO 100 mg/kg single dose), the Kp uu at 8 h is 1.03. Moreover, the “ionized at pH 7.4” value in data set [4] (pH 7.4, based on measured pKa) is given as approximately 17%. For the same compound, the pKa (commonly the pH at which an ionisable group is half protonated) in data set [4] (UV metric method, read-out: pKa (UV metric)) was found to be 6.78; in data set [4] (pH 7.4, pKa (final pKa result)), 6.7; in data set [4] (pH metric method, read-out: pKa (pH metric)), 6.62.

Values taken from paper PMC9340770 (Journal of Medicinal Chemistry, 2022).
